Laboratory results as given in patent publication US20140010901A1, “BLEOMYCIN HYDROLASE PRODUCTION PROMOTOR” (Shiseido Company, Ltd., priority 2011, published 2014).
Entries after “also recorded” stand apart in the source; their conditions may differ.

Key:
bleomycin hydrolase [1] = test: Screening for bleomycin hydrolase production promoting effects (RT-PCR, cultured human keratinocytes); type: cell-based; conditions: for expression of bleomycin hydrolase in comparison with the control: 50 μg/ml, human keratinocytes, 24 hours, control 0.1% 1,3-butylene glycol, FIG. 24; for production of bleomycin hydrolase, concentration dependence: general statement in description
Procedure: Human keratinocytes derived from normal foreskin (Cascade Biologics Inc., Portland, Md.) were cultured for 24 hours at […] in the presence of each of the herbal medicine extracts or pharmaceutical agents ([…] to 50 μg/ml) shown in FIG. 24 in keratinocyte growth medium consisting of MCDB medium supplemented with epidermal growth factor (0.1 ng/ml), insulin (10 μg/ml), hydrocortisone (0.5 μg/ml), bovine pituitary extract (0.4%), gentamycin (50 μg/ml) and amphotericin B (50 ng/ml). 0.1% 1,3-butylene glycol was used as a control.
Total RNA (500 ng) isolated from the human keratinocytes cultured in the manner described above was reverse-transcribed using random hexamers and Superscript II RNase H-transcriptase (Gibco-BRL Corp., Gaithersburg, Md.), followed by subjecting to PCR amplification using Taq DNA polymerase (Takara Corp., Kyoto, Japan) and the following primers. 40 amplification cycles were carried out consisting of 30 seconds at 94° C., 1 minute at 60° C. and 1 minute at 72° C.
The primers used in PCR are indicated below.

BH gene = test: Cytokine-mediated regulation of BH gene expression, real-time RT-PCR (Experiment 6, FIG. 20A); type: cell-based, human; conditions: proliferating keratinocytes, 24 hours of incubation
Procedure: (§1) Normal human epidermal keratinocytes derived from neonatal epidermis (Kurabo Industries, Ltd., Osaka, Japan) were cultured in EpiLife medium (Cascade Biologics, Inc., Portland, Oreg.) containing low-concentration (0.03 mM) calcium and HKGS Growth Supplement (Cascade Biologics, Inc.). All cells were incubated at 37° C. in the presence of 5% CO2 and were used within 4 passages of subculturing. Cells were collected at 70% confluence, 100% confluence, 2 days after reaching confluence, and 2 days after reaching confluence in 2 mM calcium.
(§2) Transcription levels of BH and related factors were analyzed by quantitative real-time RT-PCR. Total RNA was extracted from cultured cells using Isogen (Nippon Gene Co., Ltd., Tokyo, Japan) in accordance with the instructions provided by the manufacturer. Reverse transcription of cDNA was carried out using SuperScript™ II (Invitrogen Corp., Carlsbad, Calif.). Real-time RT-PCR was carried out with the Light Cycler Raid Cycler System using the Light Cycler 480 SYBR Green I Master Mix (Roche Diagnostics GmbH) in accordance with the instructions provided by the manufacturer. Glyceraldehyde 3-phosphate dehydrogenase (GAPDH) was used as a housekeeping gene. Specificity of the amplified fragments was confirmed by quantitative analysis of melting curves by Light Cycler analytical software. The amounts of mRNA were standardized with respect to GAPDH mRNA, and finally indicated as a ratio to the mRNA of an untreated control.
Since BH is an NMF-producing enzyme, it has the possibility of being involved in the pathophysiology of AD. Accordingly, an investigation was conducted of the effects of Th1, Th2 and Th17 cytokines on BH gene expression. […] Similar results were obtained with differentiated keratinocytes (data not shown). In order to clarify the role of IFN-γ in the regulation of BH gene expression, a promoter assay was carried out to identify cytokine response elements. […] IFN-γ no longer suppressed promoter activity after this sequence was deleted (FIG. 20B). […]

bleomycin hydrolase [2] = test: Effect of cytokines on bleomycin hydrolase mRNA expression, quantitative PCR (Experiment 5, FIG. 14); type: cell-based, human; conditions: keratinocytes in the proliferation stage, 24 hours, IL-4 and TNFα 0.1-10 ng/ml, IFNγ 1.0-100 ng/ml
Procedure: as §1
The expression level of bleomycin hydrolase in keratinocytes was measured by quantitative PCR according to the following method using Light Cycler 480 (Roche Diagnostics GmbH, Mannheim, Germany). Light Cycler FastStart DNA Master CYBR Green I was used for the reagent. 0.6 μl aliquots of each of the following bleomycin hydrolase primers and 6.8 μl of water were added to 10 μl of SYBR Green I Master Mix followed by bringing to a total volume of 20 μl and carrying out PCR for 45 cycles consisting of 15 seconds at 95° C., 20 seconds at 55° C. and 20 seconds at 72° C. The results obtained were corrected by comparing with the results for a housekeeping gene, G3PDH.
IL-4 (final concentration: 0.1, 1.0 or 10 ng/ml), TNFα (final concentration: 0.1, 1.0 or 10 ng/ml) and IFNγ (final concentration: 1.0, 10 or 100 ng/ml) were respectively added to cultured keratinocytes in the proliferation stage, and after incubating for 24 hours, RNA was collected using Isogen. Expression of bleomycin hydrolase mRNA was measured by quantitative PCR. Based on the results shown in FIG. 14, a type of cytokine, interleukin-4 (IL-4) can be understood to down-regulate expression of bleomycin hydrolase.

IRF-1 = test: Effect of cytokines on IRF-1 mRNA expression in cultured keratinocytes (FIG. 22); type: cell-based, human
Procedure: as §2
(§3) An investigation was conducted of the cytokine-dependent regulation of these transcription factors.

IRF-2 = test: Effect of cytokines on IRF-2 mRNA expression in cultured keratinocytes (FIG. 22); type: cell-based, human
Procedure: as §2, §3

BH promoter = BH promoter luciferase assay in transfected cultured keratinocytes (FIG. 20B); type: cell-based, human; conditions: keratinocytes transfected with pGL3-BH-616 containing IRF-1/2 binding sites, 24 hours
Procedure: Keratinocytes were cultured in a 12-well tissue culture plate at a density of 5×10^4 cells/well followed by transfection with 1 μg aliquots of each construct using FuGene HD Transfection Reagent (Roche Diagnostics AG, Basel, Switzerland). In order to correct for transfection efficiency, all cells were simultaneously transfected with pGL4.74 [hRluc-TK] vector (Promega Co.) containing sea pansy (Renilla) luciferase gene under the control of HSV-TK promoter. Unless specifically indicated otherwise, the cells were collected 24 hours after transfection and lysed using […] of Passive Lysis Buffer (Promega Co.) per well. Luciferase activity was analyzed using the Dual Luciferase Reporter Assay System (Promega Co.) and Auto Lumat Plus Luminoeter (Berthold Technologies GmbH, Bad Wilbad, Germany). Firefly luciferase activity was standardized for sea pansy luciferase activity. Three transfections were independently carried out for each construct and results were expressed as the mean value thereof.
Since BH is an NMF-producing enzyme, it has the possibility of being involved in the pathophysiology of AD. Accordingly, an investigation was conducted of the effects of Th1, Th2 and Th17 cytokines on BH gene expression. […] Similar results were obtained with differentiated keratinocytes (data not shown). […]

MZF-1 = test: Effect of cytokines on MZF-1 expression in cultured keratinocytes (FIG. 22); type: cell-based, human; conditions: most effective at IL-4 10 ng/ml
Procedure: as §2, §3

Sp-1 = test: Effect of cytokines on Sp-1 expression in cultured keratinocytes (FIG. 22); type: cell-based, human; conditions: most effective at IL-4 10 ng/ml
Procedure: as §2, §3

[3] = only at IL-4 100 ng/ml, FIG. 22B

Molecule: O=C(O)CCCNS(=O)(=O)c1ccccc1 [benzenesulfonyl GABA, benzenesulfonyl γ-aminobutyric acid]
- expression of bleomycin hydrolase in comparison with the control (bleomycin hydrolase [1]): significantly increase
- production of bleomycin hydrolase, concentration dependence (bleomycin hydrolase [1]): concentration-dependently promotes production

Molecule: IFN-γ: Th1 cytokine, human IFN-γ purchased from Peprotech EC
- BH mRNA expression (BH gene): dose-dependent down-regulation; also recorded: remarkably suppressed; also recorded: significantly decreases
- expression of bleomycin hydrolase mRNA (bleomycin hydrolase [2]): significantly increases
- IRF-1 mRNA expression (IRF-1; IFN-γ treatment, FIG. 22A): potent dose-dependent up-regulation
- IRF-2 expression (IRF-2; IFN-γ treatment, FIG. 22A): up-regulated
- BH promoter activity (luciferase) (BH promoter): down-regulated

Molecule: IL-4: Th2 cytokine, human IL-4 purchased from Peprotech EC
- BH mRNA expression (BH gene): did not demonstrate any direct action whatsoever
- expression of bleomycin hydrolase mRNA (bleomycin hydrolase [2]): down-regulates
- expression of MZF-1 (MZF-1): down-regulated most effectively; also recorded: down-regulated
- expression of Sp-1 (Sp-1): down-regulated most effectively; also recorded: down-regulated
- expression of IRF-1 (IRF-1; [3]): significantly amplified
- expression of IRF-2 (IRF-2; [3]): significantly amplified

Molecule: TNFα
- expression of bleomycin hydrolase mRNA (bleomycin hydrolase [2]): significantly increases

Molecule: IL-13: Th2 cytokine, human IL-13 manufactured by R&D Systems Inc.
- BH mRNA expression (BH gene): did not demonstrate any direct action whatsoever

Molecule: OC[C@@H](O)[C@@H](O)CO [erythritol]
- expression of bleomycin hydrolase in comparison with the control (bleomycin hydrolase [1]): significantly increase
- production of bleomycin hydrolase, concentration dependence (bleomycin hydrolase [1]): concentration-dependently promotes production
